# Test results as given in patent US10201580B2, “Methods of feeding animals liquid feed with soluble fiber and sugar alcohol” (PURINA ANIMAL NUTRITION LLC, priority 2004, dated 2019).
# Key:
# Holstein bull calves [1] = experiment: Further trial, calf milk replacer without psyllium, with or without sorbitol: scour score and scour days; format: in vivo; conditions: 6 g of sorbitol per day
# Source text: (§1) A further trial was ran to determine what effect sorbitol without a dietary fiber would have on calves fed an intensified diet of calf milk replacer. Forty-six three to ten day old Holstein bull calves weighing approximately 90 to 100 pounds were fed an intensified diet of calf milk replacer. Twenty-four calves were fed a calf milk replacer without psyllium and without sorbitol and twenty-two calves were fed calf milk replacer without psyllium but with sorbitol. […] were fed 6 grams each per day of sorbitol. Data for parameters presented in the Tables above was analyzed using the general linear model (GLM) statistical procedure of SAS™. Statistical analysis software for a randomized complete block design that included both the particular feed regimen and the week of the test period in the model statement. The SAS™ statistical analysis software is available from SAS Institute, Inc. of Cary, N.C. Additionally, all data was analyzed to determine the mean of the data for each variable under consideration during the collection period for the particular data. Additionally, the PDiff function of the GLM statistical procedure was used to characterize the mean values of the data by providing for comparisons between mean data values for the calves of different treatments for particular test parameters or variables.
# Holstein bull calves [2] = experiment: Further trial, calf milk replacer without psyllium, with or without sorbitol: respiratory scores; format: in vivo; conditions: 6 g per day of sorbitol; no psyllium
# Source text: as §1
# Holstein bull calves [3] = experiment: Further trial, calf milk replacer without psyllium, with or without sorbitol: weaning scores; format: in vivo; conditions: 6 g per day of sorbitol; no psyllium
# Source text: as §1
# [4] = Further trial, calf milk replacer without psyllium, with or without sorbitol: weight gain, CMR consumption, starter intake, feed:gain; format: in vivo, Holstein bull calves; conditions: 6 g per day of sorbitol
# Source text: as §1
smiles,measurement,setting,value
OC[C@@H](O)[C@@H](O)[C@H](O)[C@@H](O)CO [sorbitol],difference in scour score vs calves fed no sorbitol,Holstein bull calves [1],no statistically significant different
same,difference in scoured days vs calves fed no sorbitol,Holstein bull calves [1],no statistically significant different
same,difference in respiratory scores vs calves not fed any sorbitol,Holstein bull calves [2],no statistically significant difference
same,difference in weaning scores vs calves not fed any sorbitol,Holstein bull calves [3],no statistically significant difference
same,difference in average feed:gain (feed efficiency) vs calves fed no sorbitol,[4],no statistically significant difference
same,difference in calf milk replacer consumption vs calves fed no sorbitol,[4],no statistically significant difference
same,difference in starter feed intake vs calves fed no sorbitol,[4],no statistically significant difference
same,difference in total weight gain vs calves fed no sorbitol,[4],no statistically significant difference
